{"source": "patent US20060147923A1", "about": "“Nucleic acid sequences encoding novel point mutations on mglur2 and mglur3” (priority 2002, published 2006)", "target": "T1, wild type mGluR2 (Homo sapiens, UniProt Q14416)", "T1 construct": "expressed in transfected cells; host or cells: HEK293 cells, transient lipid transfection (Effectene, MAGEC plate protocol)", "T1 sequence (Q14416 19-872)": "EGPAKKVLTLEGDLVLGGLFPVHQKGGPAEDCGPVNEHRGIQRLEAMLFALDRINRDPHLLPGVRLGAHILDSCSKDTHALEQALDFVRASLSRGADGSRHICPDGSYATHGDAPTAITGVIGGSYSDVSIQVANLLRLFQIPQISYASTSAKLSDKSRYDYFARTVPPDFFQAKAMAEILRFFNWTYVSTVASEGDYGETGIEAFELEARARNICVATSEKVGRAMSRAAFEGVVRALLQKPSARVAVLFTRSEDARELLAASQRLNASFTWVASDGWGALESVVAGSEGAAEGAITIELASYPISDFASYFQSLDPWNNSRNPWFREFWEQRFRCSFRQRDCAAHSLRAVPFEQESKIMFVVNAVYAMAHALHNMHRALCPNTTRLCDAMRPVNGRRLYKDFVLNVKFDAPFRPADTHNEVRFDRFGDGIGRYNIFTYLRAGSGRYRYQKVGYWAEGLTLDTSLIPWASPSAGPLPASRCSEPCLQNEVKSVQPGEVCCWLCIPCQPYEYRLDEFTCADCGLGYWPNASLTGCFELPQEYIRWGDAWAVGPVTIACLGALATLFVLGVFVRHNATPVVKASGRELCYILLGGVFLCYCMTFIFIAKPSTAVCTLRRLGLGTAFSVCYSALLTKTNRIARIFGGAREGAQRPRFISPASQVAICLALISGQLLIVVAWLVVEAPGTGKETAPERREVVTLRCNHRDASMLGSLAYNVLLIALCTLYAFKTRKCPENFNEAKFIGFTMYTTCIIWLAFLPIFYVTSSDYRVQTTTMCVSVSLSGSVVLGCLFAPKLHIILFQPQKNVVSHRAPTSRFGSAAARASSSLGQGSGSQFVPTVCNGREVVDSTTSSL", "assay": "Phosphoinositide hydrolysis, wild-type mGluR2 (FIG. 1)", "type": "cell-based", "conditions": "HEK-293 cells transfected with wild-type mGluR2; 5 uM glutamate; normalized to 1 mM glutamate control", "text": "For mGluR2 and mGluR3 mutants, the mGluR2/Gα16 nucleic acids are mixed with a lipid-based transfection reagent and are deposited into a well of a multi-well plate coated with fibronectin. The resulting DNA/lipid complexes are subsequently dried in vacuo then seeded with HEK293 cells. This is based on a method designated as MAGECTM, and disclosed in U.S. Provisional Application No. 60/372,476, filed Apr. 15, 2002, and titled, “Matrix Analyses of Gene Expression in Cells.”\n11. Approximately forty hours after plating, the cells are analyzed in the phosphoinositide hydrolysis assay.\nPhosphoinositide hydrolysis was determined by measuring the accumulation of tritiated inositol monophosphate ([^3H]-IP1) in the presence of LiCl. The method is taken from Berridge: Biochem J (1983) 212: 849-58. This determination provides for comparative data on the level of potentiation and loss of potentiation when testing a purported or known allosteric modulator in the presence of glutamate and either a wild-type mGluR2 or mGluR3 and at least one mutant of the respective mGluR2 or mGluR3.\n1. HEK293 cells that were previously transiently transfected with hmGluR2 and Gα16 were labeled overnight with 1 μCi/well myo-[2-^3H]-inositol in a […] DMEM medium.\n2. […]\n12. The sample was quantified in a scintillation counter after a two-hour waiting period. […]", "data": [{"smiles": "COc1ccccc1Oc1cccc(N(Cc2cccnc2)S(=O)(=O)CC(F)(F)F)c1", "note": "[Compound A]", "values": [{"measurement": "effect of modulator on response to glutamate, percent response compared to 1 mM glutamate positive control", "value": "up-regulating the response of mGluR2"}]}]}
